Laboratory results published in ChEMBL document CHEMBL3286137, “Design, synthesis and structure-activity relationships of novel 4-phenoxyquinoline derivatives containing pyridazinone moiety as potential antitumor agents” (Eur J Med Chem, 2014).

Key:
[1] = system: HT-29; test: cells; details: Homo sapiens, HT-29, 72 h
[2] = cells; details: Homo sapiens, MKN-45, 72 h
[3] = system: A549; test: cells; details: Homo sapiens, A549, 72 h
[4] = cells; details: Homo sapiens, NCI-H460, 72 h
[5] = Cytotoxicity against human U87MG cells assessed as inhibition of cell growth after 72 hrs by MTT assay; type: functional, cell-based, U-87MG ATCC; details: U-87 MG

Row | Compound | IC50 [1] | IC50 [2] | IC50 [3] | IC50 [4] | IC50 [5]
1 | COc1cc2c(Oc3ccc(NC(=O)c4nn(-c5ccc(F)c(F)c5)c(=O)cc4C)cc3F)ccnc2cc1OCCCN1CCOCC1 | 160 nM | 90 nM | 320 nM | 390 nM | 
2 | COc1cc2c(Oc3ccc(NC(=O)c4nn(-c5ccc(Cl)cc5)c(=O)cc4C)cc3F)ccnc2cc1OCCCN1CCC(C)CC1 | 180 nM | 150 nM | 210 nM | 370 nM | 1350 nM
3 | COc1cc2c(Oc3ccc(NC(=O)c4nn(-c5ccc(Cl)cc5Cl)c(=O)cc4C)cc3F)ccnc2cc1OCCCN1CCC(C)CC1 | 170 nM | 120 nM | 200 nM | 250 nM | 
4 | COc1cc2c(Oc3ccc(NC(=O)c4nn(-c5ccccc5)c(=O)cc4C)cc3F)ccnc2cc1OCCCN1CCN(C)CC1 | 270 nM | 130 nM | 350 nM | 360 nM | 2120 nM
5 | COc1cc2c(Oc3ccc(NC(=O)c4nn(-c5ccccc5C(F)(F)F)c(=O)cc4C)cc3F)ccnc2cc1OCCCN1CCN(C)CC1 | 170 nM | 40 nM | 170 nM | 240 nM | 1170 nM
6 | COc1cc2c(Oc3ccc(NC(=O)c4nn(-c5ccccc5OC(F)(F)F)c(=O)cc4C)cc3F)ccnc2cc1OCCCN1CCN(C)CC1 | 180 nM | 100 nM | 130 nM | 260 nM | 1440 nM
7 | COc1cc2c(Oc3ccc(NC(=O)c4nn(-c5cccc(F)c5)c(=O)cc4C)cc3F)ccnc2cc1OCCCN1CCN(C)CC1 | 250 nM | 120 nM | 150 nM | 260 nM | 1590 nM
8 | COc1ccc(-n2nc(C(=O)Nc3ccc(Oc4ccnc5cc(OCCCN6CCN(C)CC6)c(OC)cc45)c(F)c3)c(C)cc2=O)cc1 | 3520 nM | 1230 nM | 2200 nM | 3660 nM | 
9 | COc1cc2c(Oc3ccc(NC(=O)c4nn(-c5ccc(Cl)cc5)c(=O)cc4C)cc3F)ccnc2cc1OCCCN1CCN(C)CC1 | 320 nM | 40 nM | 270 nM | 440 nM | 1560 nM
10 | COc1cc2c(Oc3ccc(NC(=O)c4nn(-c5ccc(F)c(F)c5)c(=O)cc4C)cc3F)ccnc2cc1OCCCN1CCN(C)CC1 | 170 nM | 120 nM | 130 nM | 190 nM | 
11 | COc1cc2c(Oc3ccc(NC(=O)c4nn(-c5ccccc5OC(F)(F)F)c(=O)cc4C)cc3F)ccnc2cc1OCCCN1CCCC1 | 180 nM | 60 nM | 140 nM | 210 nM | 1280 nM
12 | COc1cc2c(Oc3ccc(NC(=O)c4nn(-c5cccc(F)c5)c(=O)cc4C)cc3F)ccnc2cc1OCCCN1CCCC1 | 250 nM | 120 nM | 170 nM | 280 nM | 1700 nM
13 | COc1cc2c(Oc3ccc(NC(=O)c4nn(-c5ccc(Cl)cc5)c(=O)cc4C)cc3F)ccnc2cc1OCCCN1CCCC1 | 260 nM | 150 nM | 230 nM | 360 nM | 1430 nM
14 | COc1cc2c(Oc3ccc(NC(=O)c4nn(-c5ccc(F)c(F)c5)c(=O)cc4C)cc3F)ccnc2cc1OCCCN1CCCC1 | 150 nM | 80 nM | 220 nM | 170 nM | 1400 nM
15 | COc1cc2c(Oc3ccc(NC(=O)c4nn(-c5ccccc5)c(=O)cc4C)cc3F)ccnc2cc1OCCCN1CCCCC1 | 160 nM | 160 nM | 150 nM | 280 nM | 1370 nM
16 | COc1cc2c(Oc3ccc(NC(=O)c4nn(-c5ccccc5C)c(=O)cc4C)cc3F)ccnc2cc1OCCCN1CCCCC1 | 2810 nM | 1310 nM | 1920 nM | 3220 nM | 2500 nM

Row | Compound | IC50 [1] | IC50 [2] | IC50 [3] | IC50 [4] | IC50 [5]
17 | COc1cc2c(Oc3ccc(NC(=O)c4nn(-c5ccccc5C(F)(F)F)c(=O)cc4C)cc3F)ccnc2cc1OCCCN1CCCCC1 | 170 nM | 90 nM | 140 nM | 210 nM | 1150 nM
18 | COc1cc2c(Oc3ccc(NC(=O)c4nn(-c5ccccc5OC(F)(F)F)c(=O)cc4C)cc3F)ccnc2cc1OCCCN1CCCCC1 | 190 nM | 40 nM | 120 nM | 230 nM | 1300 nM
19 | COc1cc2c(Oc3ccc(NC(=O)c4nn(-c5cccc(F)c5)c(=O)cc4C)cc3F)ccnc2cc1OCCCN1CCCCC1 | 290 nM | 130 nM | 250 nM | 360 nM | 1500 nM
20 | COc1ccc(-n2nc(C(=O)Nc3ccc(Oc4ccnc5cc(OCCCN6CCCCC6)c(OC)cc45)c(F)c3)c(C)cc2=O)cc1 | 3200 nM | 330 nM | 1500 nM | 3730 nM | 1800 nM
21 | COc1cc2c(Oc3ccc(NC(=O)c4nn(-c5ccc(Cl)cc5)c(=O)cc4C)cc3F)ccnc2cc1OCCCN1CCCCC1 | 360 nM | 230 nM | 320 nM | 460 nM | 1400 nM
22 | COc1cc2c(Oc3ccc(NC(=O)c4nn(-c5ccc(Cl)cc5Cl)c(=O)cc4C)cc3F)ccnc2cc1OCCCN1CCCCC1 | 290 nM | 80 nM | 220 nM | 390 nM | 1800 nM
23 | COc1cc2c(Oc3ccc(NC(=O)c4nn(-c5ccccc5C)c(=O)cc4C)cc3F)ccnc2cc1OCCCN1CCC(C)CC1 | 2810 nM | 1290 nM | 1460 nM | 2260 nM | 2240 nM
24 | COc1cc2c(Oc3ccc(NC(=O)c4nn(-c5ccccc5C(F)(F)F)c(=O)cc4C)cc3F)ccnc2cc1OCCCN1CCC(C)CC1 | 180 nM | 60 nM | 160 nM | 200 nM | 1120 nM
25 | COc1cc2c(Oc3ccc(NC(=O)c4nn(-c5cccc(F)c5)c(=O)cc4C)cc3F)ccnc2cc1OCCCN1CCC(C)CC1 | 300 nM | 140 nM | 250 nM | 250 nM | 1800 nM
26 | COc1cc2c(Oc3ccc(NC(=O)c4nn(-c5ccccc5)c(=O)cc4C)cc3F)ccnc2cc1OCCCN1CCOCC1 | 350 nM | 110 nM | 720 nM | 450 nM | 1600 nM
27 | COc1cc2c(Oc3ccc(NC(=O)c4nn(-c5ccccc5C)c(=O)cc4C)cc3F)ccnc2cc1OCCCN1CCOCC1 | 1010 nM | 270 nM | 530 nM | 1380 nM | 2000 nM
28 | COc1cc2c(Oc3ccc(NC(=O)c4nn(-c5ccccc5OC(F)(F)F)c(=O)cc4C)cc3F)ccnc2cc1OCCCN1CCOCC1 | 170 nM | 90 nM | 120 nM | 200 nM | 1300 nM
29 | COc1cc2c(Oc3ccc(NC(=O)c4nn(-c5cccc(F)c5)c(=O)cc4C)cc3F)ccnc2cc1OCCCN1CCOCC1 | 270 nM | 110 nM | 550 nM | 290 nM | 1980 nM
30 | COc1ccc(-n2nc(C(=O)Nc3ccc(Oc4ccnc5cc(OCCCN6CCOCC6)c(OC)cc45)c(F)c3)c(C)cc2=O)cc1 | 1230 nM | 260 nM | 1500 nM | 1770 nM | 
31 | COc1cc2c(Oc3ccc(NC(=O)c4nn(-c5ccc(Cl)cc5)c(=O)cc4C)cc3F)ccnc2cc1OCCCN1CCOCC1 | 260 nM | 70 nM | 330 nM | 380 nM | 1970 nM
